Experimental findings from paper PMC7883289, “Synthesis of Paeonol-Ozagrel Conjugate: Structure Characterization and In Vivo Anti-Ischemic Stroke potential” (Frontiers in Pharmacology, 2021) are described below.

The test system of one series is SOD and MDA. The experiment in a line: Oxidative stress biomarker assay (SOD, MDA) in brain tissue of MCAO rats. The class given is in vivo. The note with it: whole brain homogenate, POC 4.5 mg/kg iv compared with the paeonol and OS groups (3 mg/kg iv), n = 6. As to the method:
Male Sprague Dawley (SD) rats weighing among 220 g–230 g (Anhui Medicine University, Hefei, China; certificate number: SCXK20190,003) were housed under ad libitum access to food and water with a standardized light-dark cycle condition (25 ± 2°C, 12–hour light/dark cycle). All the experimental protocols were performed in accordance with the Institutional Animal Care and Use Committee of Anhui University of Chinese Medicine (Animal ethics number: AHUCM–rats–2019001). We used the minimal number of study animals (n = 6 rats in each group for different experiments). The rats were fastened upon the operating table in a supine position after being anesthetized with 2% pelltobarbitalum natricum (50 mg/kg). After disinfection of the skin within close proximity of the operative region, the right common carotid artery (CCA), external carotid artery (ECA) and internal carotid artery (ICA) were exposed with blunt dissection. The CCA was temporarily ligated and the ECA were permanently ligated ([Liu et al., 2016]). A nylon monofilament surgical thread was introduced into the ICA to block the MCA when the blunted distal end met resistance. After 2 h of occlusion, reperfusion was accomplished to restore blood supply to the MCA area by removing the filament ([Li et al., 2009]; [Zhai et al., 2017]). […] A microplate reader was used to measure the absorbance at 450 and 532 nm with a UV spectrophotometer. […]

The nature of series [1]: Pharmacokinetic study after intravenous injection, LC-MS/MS of plasma. It is filed as in vivo. The note with it: rat, rats, 4.5 mg/kg. As to the method: Six rats were given POC (4.5 mg/kg) by intravenous injection, then, an approximately 1.0 ml sample of blood was obtained from the fossa orbitalis vein of rats and placed into heparin–rinsed EP pipes according to a programmed schedule at 3, 5, 10, 20, 30, 45, 60, 120, and 240 min after dosing.
Plasma (80 μL) was mixed with glibenclamide (20 μL) as the internal standard, and then 900 μL of acetonitrile was used to precipitate the protein. All samples were vortex–mixed for 5 min, then centrifuged at 15,000 r/min for 10 min. Then, 800 μL of supernatant was measured, blowed dry by nitrogen, and reconstituted with 100 μL of acetonitrile.
The Thermo Fisher Scientific Hypersil GOLD column (2.1 mm × 100 mm, 1.9 μm) was used as the analytical column; it was maintained at 30°C with 1.0 mmol/L of ammonium acetate (A) and mathanol (B) as the mobile phase, using glibenclamide as the internal standard (IS). The gradient elution program was operated as follows: 0–1.5 min, 55% B–65% B; 1.5–2.5 min, 65% B–80% B; 2.5–3.0 min, 80% B–90% B; 3.0–4.0 min, 90% B; 4.0–4.5 min, 90% B–55% B; 4.5–6.0 min, 55% B. The sample injection volume was 5.0 μL, and the flow rate set at 0.2 ml/min.
Mass spectrometry was operated with multiple reaction monitoring (MRM) in a positive ionization mode. The ion pair of POC is m/z 377.1 and 163.0; the declustering voltage (DP) is 28 eV; and the collision energy (CE) is 30 eV. The ion pair of glibenclamide is m/z 494.1 and 169.0, and the DP is 65 eV, the CE is 50 eV.

The AUC(0-t) is the area under the concentration-time curve up to a stated or last time point. A low value points to low exposure. The Cmax is the peak of the concentration-time curve. The clearance is a measure of how efficiently the substance is removed, as volume per time. Usually half-life stands for the time in which the quantity being followed falls by half. A higher half-life goes with slow decline. For the compound `COc1ccc(C(C)=O)c(OC(=O)C=Cc2ccc(Cn3ccnc3)cc2)c1` [POC, paeonol-ozagrel conjugate], in the series on SOD and MDA, the “MDA levels in brain tissue” value is “lowest MDA levels” and the “SOD levels in brain tissue” value was “highest SOD levels”. Also, in series [1], the area under the curve AUC(0-t) was 0.264 µg·h/mL, the highest level (Cmax) was 0.465 ± 0.269 µg/mL, the clearance was determined as 16.6 ± 3.74 L/h/kg and the half-life amounted to 53.5 ± 19.6 min. The MRT last in series [1] (read-out: MRT0-t (converted)) was 51.9 min.
